Here are results for 15 compounds from patent publication US20220041606A1, “POSITIVE ALLOSTERIC MODULATORS OF THE MUSCARINIC ACETYLCHOLINE RECEPTOR M1” (Vanderbilt University, priority 2020, published 2022).

The target in assay [1] is T1, human mAChR M1 (Homo sapiens, UniProt P11229).
T1 construct: host or cells: CHO-K1 cells (ATCC), stably transfected using Lipofectamine2000
T1 sequence (P11229 1-460): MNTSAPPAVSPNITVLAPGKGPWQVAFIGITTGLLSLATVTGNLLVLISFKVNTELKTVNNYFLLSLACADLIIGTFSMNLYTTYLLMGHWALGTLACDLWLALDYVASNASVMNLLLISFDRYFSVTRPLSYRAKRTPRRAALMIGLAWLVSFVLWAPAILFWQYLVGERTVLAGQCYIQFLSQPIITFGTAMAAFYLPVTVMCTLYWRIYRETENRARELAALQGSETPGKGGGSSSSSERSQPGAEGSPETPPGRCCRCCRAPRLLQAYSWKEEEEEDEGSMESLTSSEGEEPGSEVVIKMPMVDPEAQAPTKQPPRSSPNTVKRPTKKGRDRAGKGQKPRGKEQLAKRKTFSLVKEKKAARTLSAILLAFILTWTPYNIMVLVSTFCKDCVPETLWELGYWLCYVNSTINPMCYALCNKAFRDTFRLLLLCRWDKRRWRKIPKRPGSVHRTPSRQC
As to the kind of experiment: mAChR M1 cell-based functional assay (calcium mobilization), PAM activity: increase in the EC20 acetylcholine response. Particulars: CHO-K1 cells expressing hM1; potentiation of EC20 acetylcholine response. An outline of the steps: (§1)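 Fluorescence ratio calcium read-out (Fluo-4 AM, FDSS 6000) in human M1-expressing CHO-K1 cells. Agonist activity taken as concentration-dependent rise after compound addition; potentiation as enhancement of a subsequent EC20 acetylcholine challenge. Curves from 11-point threefold dilutions fitted by four-parameter logistic; Emax expressed versus acetylcholine maximum.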
For orientation: Calcium flux is commonly read through the fluorescence of an indicator in the cells.

The target in assay [2] is T1, human mAChR M1. As to the kind of experiment: mAChR M1 cell-based functional assay (calcium mobilization), agonist activity upon compound addition. Particulars: CHO-K1 cells expressing hM1; for Emax: relative to the maximum for acetylcholine; for EC50: compound alone, before acetylcholine addition. An outline of the steps:
as §1

Regarding `Cn1cc(-c2ccc(Cn3cc(C(=O)N[C@H]4CCOC[C@@H]4O)c4nccnc4c3=O)c(F)c2)cn1` [Compound A77, 6-(2-fluoro-4-(1-methyl-1H-pyrazol-4-yl)benzyl)-N-((3R,4S)-3-hydroxytetrahydro-2H-pyran-4-yl)-5-oxo-5,6-dihydropyrido[3,4-b]pyrazine-8-carboxamide], on human mAChR M1 [1], the EC50 (as a rule, the concentration giving half of the maximal effect) was determined as 4.21 µM and the Emax (as a rule, the maximal effect, on the per cent scale that the assay sets) amounted to 72%. The Emax on human mAChR M1 [2] was 18%.
The matching figures for `Cn1cc(-c2ccc(Cn3cc(C(=O)N[C@H]4CCCCC[C@@H]4O)c4nccnc4c3=O)c(F)c2)cn1` [Compound A78, 6-(2-fluoro-4-(1-methyl-1H-pyrazol-4-yl)benzyl)-N-((1S,2S)-2-hydroxycycloheptyl)-5-oxo-5,6-dihydropyrido[3,4-b]pyrazine-8-carboxamide]: 2.98 µM, 67% and 5%.
Take `Cn1cc(-c2ccc(Cn3cc(C(=O)N[C@H]4CCC[C@@H]4O)c4nccnc4c3=O)c(F)c2)cn1` [Compound A79, 6-(2-fluoro-4-(1-methyl-1H-pyrazol-4-yl)benzyl)-N-((1S,2S)-2-hydroxycyclopentyl)-5-oxo-5,6-dihydropyrido[3,4-b]pyrazine-8-carboxamide]: on human mAChR M1 [1], the EC50 is no less than 10 µM and the maximal response (Emax) came out at 51%. Besides, at human mAChR M1 [2], the EC50 was greater than 10 µM and the Emax was less than 5%.
Turning to `Cn1cc(-c2ccc(Cn3cc(C(=O)NCC(C)(C)O)c4nccnc4c3=O)c(F)c2)cn1` [Compound A80, 6-(2-fluoro-4-(1-methyl-1H-pyrazol-4-yl)benzyl)-N-(2-hydroxy-2-methylpropyl)-5-oxo-5,6-dihydropyrido[3,4-b]pyrazine-8-carboxamide], the 50% effective concentration (EC50) on human mAChR M1 [1] was no less than 10 µM; at human mAChR M1 [2], greater than 10 µM. The Emax at human mAChR M1 [1] is 30%; on human mAChR M1 [2] it was less than 5%.
For `Cn1cc(-c2ccc(Cn3cc(C(=O)NCC(O)C(F)(F)F)c4nccnc4c3=O)c(F)c2)cn1` (stereo not shown) [Compound A81, 6-(2-fluoro-4-(1-methyl-1H-pyrazol-4-yl)benzyl)-5-oxo-N-(3,3,3-trifluoro-2-hydroxypropyl)-5,6-dihydropyrido[3,4-b]pyrazine-8-carboxamide] the same measures were no less than 10 µM, greater than 10 µM, 33% and less than 5%.
Turning to `CC(C)[C@@H](CO)NC(=O)c1cn(Cc2ccc(-c3cnn(C)c3)cc2F)c(=O)c2nccnc12` [Compound A82, (S)-6-(2-fluoro-4-(1-methyl-1H-pyrazol-4-yl)benzyl)-N-(1-hydroxy-3-methylbutan-2-yl)-5-oxo-5,6-dihydropyrido[3,4-b]pyrazine-8-carboxamide], at human mAChR M1 [1], the EC50 was no less than 10 µM and the Emax came to 26%. For the same compound, on human mAChR M1 [2], the EC50 is greater than 10 µM and the Emax was less than 5%.
For the compound `CC[C@H](C)[C@@H](CO)NC(=O)c1cn(Cc2ccc(-c3cnn(C)c3)cc2F)c(=O)c2nccnc12` [Compound A83, 6-(2-fluoro-4-(1-methyl-1H-pyrazol-4-yl)benzyl)-N-((2S,3S)-1-hydroxy-3-methylpentan-2-yl)-5-oxo-5,6-dihydropyrido[3,4-b]pyrazine-8-carboxamide], at human mAChR M1 [1], the 50% effective concentration (EC50) was no less than 10 µM and the maximal response (Emax) was 26%. For the same compound, on human mAChR M1 [2], the EC50 is greater than 10 µM and the Emax is less than 5%.
In the case of `Cn1cc2c(-c3cc(F)c(Cn4cc(C(=O)N[C@H]5CCOC[C@@H]5O)c5ncncc5c4=O)c(F)c3)cccc2n1` [Compound A84, 6-(2,6-difluoro-4-(2-methyl-2H-indazol-4-yl)benzyl)-N-((3R,4S)-3-hydroxytetrahydro-2H-pyran-4-yl)-5-oxo-5,6-dihydropyrido[4,3-d]pyrimidine-8-carboxamide], on human mAChR M1 [1], the EC50 is no less than 10 µM and the maximum response (Emax) turned out to be 40%. At human mAChR M1 [2], the EC50 was greater than 10 µM and the Emax is less than 5%.
As for `Cn1cc2c(-c3cc(F)c(Cn4cc(C(=O)N[C@H]5CCCCC[C@@H]5O)c5ncncc5c4=O)c(F)c3)cccc2n1` [Compound A85, 6-(2,6-difluoro-4-(2-methyl-2H-indazol-4-yl)benzyl)-N-((1S,2S)-2-hydroxycycloheptyl)-5-oxo-5,6-dihydropyrido[4,3-d]pyrimidine-8-carboxamide], the values for the EC50 at human mAChR M1 [1] and on human mAChR M1 [2] were no less than 10 µM and greater than 10 µM, respectively. Besides, the Emax was 41% at human mAChR M1 [1] and less than 5% at human mAChR M1 [2].
`Cn1cc(-c2ccc(Cn3cc(C(=O)N[C@H]4CCCC[C@@H]4O)c4ncccc4c3=O)cc2)cn1` [Compound A86, N-((1S,2S)-2-hydroxycyclohexyl)-6-(4-(1-methyl-1H-pyrazol-4-yl)benzyl)-5-oxo-5,6-dihydro-1,6-naphthyridine-8-carboxamide]: the EC50 was 0.37 µM at human mAChR M1 [1] and greater than 10 µM at human mAChR M1 [2]. Also, the values for the Emax on human mAChR M1 [1] and at human mAChR M1 [2] were 52% and less than 5%, respectively.
On to `Cn1cc(-c2ccc(Cn3cc(C(=O)N[C@H]4CCCCC[C@@H]4O)c4ncccc4c3=O)cc2)cn1` [Compound A87, N-((1S,2S)-2-hydroxycycloheptyl)-6-(4-(1-methyl-1H-pyrazol-4-yl)benzyl)-5-oxo-5,6-dihydro-1,6-naphthyridine-8-carboxamide], for which, on human mAChR M1 [1], the EC50 came out at 0.82 µM and the Emax was determined as 44%. For the same compound, at human mAChR M1 [2], the EC50 is greater than 10 µM and the Emax was less than 5%.
The matching figures for `Cn1cc2c(-c3cc(F)c(Cn4cc(C(=O)N[C@H]5CCCC[C@@H]5O)c5ncncc5c4=O)c(F)c3)cccc2n1` [Compound A88, 6-(2,6-Difluoro-4-(2-methyl-2H-indazol-4-yl)benzyl)-N-((1S,2S)-2-hydroxycyclohexyl)-5-oxo-5,6-dihydropyrido[4,3-d]pyrimidine-8-carboxamide]: no less than 10 µM, 40%, greater than 10 µM and less than 5%.
For the compound `Cn1cc(-c2ccc(Cn3cc(C(=O)N[C@H]4CCCC[C@@H]4O)c4ncncc4c3=O)c(F)c2)cn1` [Compound A89, 6-(2-fluoro-4-(1-methyl-1H-pyrazol-4-yl)benzyl)-N-((1S,2S)-2-hydroxycyclohexyl)-5-oxo-5,6-dihydropyrido[4,3-d]pyrimidine-8-carboxamide], on human mAChR M1 [1], the EC50 was no less than 10 µM and the Emax was 51%. Moreover, at human mAChR M1 [2], the EC50 is greater than 10 µM and the Emax was less than 5%.
Regarding `Cn1cc(-c2ccc(Cn3cc(C(=O)N[C@H]4CCOC[C@@H]4O)c4ncncc4c3=O)c(F)c2)cn1` [Compound A90, 6-(2-fluoro-4-(1-methyl-1H-pyrazol-4-yl)benzyl)-N-((3R,4S)-3-hydroxytetrahydro-2H-pyran-4-yl)-5-oxo-5,6-dihydropyrido[4,3-d]pyrimidine-8-carboxamide], on human mAChR M1 [1], the EC50 was no less than 10 µM and the Emax amounted to 47%. Besides, at human mAChR M1 [2], the EC50 was greater than 10 µM and the Emax is less than 5%.
Take `Cn1cc(-c2ccc(Cn3cc(C(=O)N[C@H]4CCCCC[C@@H]4O)c4ncncc4c3=O)c(F)c2)cn1` [Compound A91, 6-(2-fluoro-4-(1-methyl-1H-pyrazol-4-yl)benzyl)-N-((1S,2S)-2-hydroxycycloheptyl)-5-oxo-5,6-dihydropyrido[4,3-d]pyrimidine-8-carboxamide]: at human mAChR M1 [1], the EC50 was no less than 10 µM and the Emax is 34%. Moreover, on human mAChR M1 [2], the EC50 is greater than 10 µM and the maximal effect (Emax) was less than 5%.
